Data published in paper PMC7641330 (2020).

Legend:
[1] = test system: A10(2AP) Tte riboswitch (RNA, riboswitch, 2-aminopurine at 10) CUGGGUCGCAGUAACCCCAGUUAACAAAACAAG; assay: ITC; conditions: 100 mM NaCl, 4 mM MgCl2; 50 mM Na-HEPES pH 7.0, 25 °C
[2] = test system: A32(2AP) Tte riboswitch (RNA, riboswitch, 2-aminopurine at 32) CUGGGUCGCAGUAACCCCAGUUAACAAAACAAG; assay: ITC; conditions: 100 mM NaCl, 4 mM MgCl2; 50 mM Na-HEPES pH 7.0, 25 °C
[3] = test system: A32(2AP) Tte riboswitch (RNA, riboswitch, 2-aminopurine at 32) CUGGGUCGCAGUAACCCCAGUUAACAAAACAAG; assay: 2-aminopurine fluorescence titration, one-site fit; conditions: 100 mM NaCl, 2 mM MgCl2; 50 mM Na-HEPES pH 7.0; 100 nM RNA
[4] = test system: A14(2AP) Tte riboswitch (RNA, riboswitch, 2-aminopurine at 14) CUGGGUCGCAGUAACCCCAGUUAACAAAACAAG; assay: 2-aminopurine fluorescence titration, one-site fit; conditions: 100 mM NaCl, 2 mM MgCl2; 50 mM Na-HEPES pH 7.0; 100 nM RNA
[5] = test system: Wildtype Tte preQ1-I riboswitch 33-mer (RNA, riboswitch) CUGGGUCGCAGUAACCCCAGUUAACAAAACAAG; assay: ITC; conditions: 100 mM NaCl, 4 mM MgCl2; 50 mM Na-HEPES pH 7.0, 25 °C
[6] = test system: A13(2AP) Tte riboswitch (RNA, riboswitch, 2-aminopurine at 13) CUGGGUCGCAGUAACCCCAGUUAACAAAACAAG; assay: ITC; conditions: 100 mM NaCl, 4 mM MgCl2; 50 mM Na-HEPES pH 7.0, 25 °C
[7] = test system: A14(2AP) Tte riboswitch (RNA, riboswitch, 2-aminopurine at 14) CUGGGUCGCAGUAACCCCAGUUAACAAAACAAG; assay: ITC; conditions: 100 mM NaCl, 4 mM MgCl2; 50 mM Na-HEPES pH 7.0, 25 °C
[8] = test system: A10(2AP) Tte riboswitch (RNA, riboswitch, 2-aminopurine at 10) CUGGGUCGCAGUAACCCCAGUUAACAAAACAAG; assay: 2-aminopurine fluorescence titration, one-site fit; conditions: 100 mM NaCl, 2 mM MgCl2; 50 mM Na-HEPES pH 7.0; 100 nM RNA
[9] = test system: A13(2AP) Tte riboswitch (RNA, riboswitch, 2-aminopurine at 13) CUGGGUCGCAGUAACCCCAGUUAACAAAACAAG; assay: 2-aminopurine fluorescence titration, one-site fit; conditions: 100 mM NaCl, 2 mM MgCl2; 50 mM Na-HEPES pH 7.0; 100 nM RNA
[10] = test system: Wildtype Tte riboswitch, biotinylated (SPR) (RNA, riboswitch) CUGGGUCGCAGUAACCCCAGUUAACAAAACAAG; assay: SPR, 1:1 kinetic fit; conditions: 100 mM NaCl, 3 mM MgCl2; 10 mM Na-HEPES pH 7.4; immobilised RNA

- KD [1]: 0.0126 ± 0.002 µM
- KD [2]: 0.0105 ± 0.0024 µM
- apparent KD [3]: 0.0123 ± 0.0014 µM
- apparent KD [4]: 0.0342 ± 0.0016 µM
- KD [5]: 0.0081 ± 0.0009 µM
- KD [6]: 0.0216 ± 0.0011 µM
- KD [7]: 0.0193 ± 0.0008 µM
- apparent KD [8]: 0.0139 ± 0.0007 µM
- apparent KD [9]: 0.0257 ± 0.0024 µM
- KD [10]: 1.84 ± 0.08 × 10^-9 M
Compound: NCc1c[nH]c2nc(N)[nH]c(=O)c12
